The term IC50 denotes the concentration at which inhibition is half-maximal. By bioavailability is commonly meant dose-corrected exposure relative to a reference, in per cent. High values mean much systemic uptake, low ones little systemic uptake. A word on the clearance: it is the rate of elimination divided by the concentration. As usually defined, the half-life is the time in which the quantity being followed falls by half. Low values mean rapid decline, high ones slow decline. A word on the solubility: it is how much of the substance goes into solution per volume. Low values mean a poorly soluble substance, high ones a readily soluble substance.

The record followed here is ChEMBL document CHEMBL1155124, “Synthesis and activity of N-cyanoguanidine-piperazine P2X7 antagonists” (Bioorg Med Chem Lett, 2008).

Data set [1] addresses T1, P2X purinoceptor 7 (Homo sapiens, UniProt Q99572).
T1 sequence (Q99572 whole entry): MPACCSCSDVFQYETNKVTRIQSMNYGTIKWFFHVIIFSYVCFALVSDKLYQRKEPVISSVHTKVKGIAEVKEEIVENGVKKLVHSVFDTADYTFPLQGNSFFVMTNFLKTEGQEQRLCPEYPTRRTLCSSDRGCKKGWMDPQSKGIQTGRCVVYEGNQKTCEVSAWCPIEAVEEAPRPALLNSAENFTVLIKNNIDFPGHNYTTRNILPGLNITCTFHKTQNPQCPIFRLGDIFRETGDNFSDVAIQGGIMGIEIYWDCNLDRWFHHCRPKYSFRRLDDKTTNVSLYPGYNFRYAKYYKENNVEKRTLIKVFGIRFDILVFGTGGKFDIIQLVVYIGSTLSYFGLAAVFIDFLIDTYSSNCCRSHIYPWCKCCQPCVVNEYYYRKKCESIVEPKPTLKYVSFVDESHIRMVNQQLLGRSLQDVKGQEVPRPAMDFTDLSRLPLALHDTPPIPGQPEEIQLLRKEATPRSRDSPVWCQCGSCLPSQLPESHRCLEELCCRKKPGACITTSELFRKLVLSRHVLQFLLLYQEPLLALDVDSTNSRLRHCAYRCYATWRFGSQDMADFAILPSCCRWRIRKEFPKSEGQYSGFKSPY
The data set is described as follows: Antagonist activity at human recombinant P2X7 receptor assessed as inhibition of BzATP induced calcium flux by FLIPR assay. Type of data set: functional. For orientation: A change in cytosolic calcium serves as a functional read-out for many receptors and channels.

Data set [2] has as its target T2, P2X purinoceptor 7 (Rattus norvegicus, UniProt Q64663).
T2 sequence (Q64663 whole entry): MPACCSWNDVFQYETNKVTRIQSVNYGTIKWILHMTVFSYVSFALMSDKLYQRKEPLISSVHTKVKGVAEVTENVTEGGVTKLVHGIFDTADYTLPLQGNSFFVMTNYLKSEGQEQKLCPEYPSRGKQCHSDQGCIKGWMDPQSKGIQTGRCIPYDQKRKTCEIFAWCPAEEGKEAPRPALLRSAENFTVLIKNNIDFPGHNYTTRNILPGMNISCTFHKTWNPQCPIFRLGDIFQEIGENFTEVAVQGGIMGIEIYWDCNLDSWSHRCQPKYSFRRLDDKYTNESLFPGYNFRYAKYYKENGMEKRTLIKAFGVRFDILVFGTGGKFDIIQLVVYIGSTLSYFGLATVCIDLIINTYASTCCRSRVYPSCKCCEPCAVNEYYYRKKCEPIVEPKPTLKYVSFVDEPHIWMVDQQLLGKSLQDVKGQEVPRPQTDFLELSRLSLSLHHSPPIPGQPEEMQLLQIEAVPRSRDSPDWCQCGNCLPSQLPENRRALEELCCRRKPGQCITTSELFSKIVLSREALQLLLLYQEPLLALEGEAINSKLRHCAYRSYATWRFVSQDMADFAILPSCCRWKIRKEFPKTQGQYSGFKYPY
The data set is described as follows: Antagonist activity at rat recombinant P2X7 receptor assessed as inhibition of BzATP induced calcium flux by FLIPR assay. Type of data set: functional.

The subject of data set [3] is Blood. Description: Inhibition of IL1-beta release in LPS/ATP stimulated human whole blood. Type of data set: functional, tissue-based.
A short description of data set [4]: Volume of distribution at steady state in rat at 5 mg/kg, iv. Details: dose 5 mg/kg, route intravenous. Type of data set: ADME, organism-based. The settings on record: in vivo, read-out: Vdss.
The nature of data set [5]: Oral bioavailability in rat. The settings on record: in vivo. Type of data set: ADME, organism-based.
Data set [6] is described as follows: Plasma clearance in rat at 5 mg/kg, iv. Type of data set: ADME, organism-based. Details: dose 5 mg/kg, route intravenous.
Data set [7] can be described thus: Half life in rat at 5 mg/kg, iv. Type of data set: ADME, organism-based. Set-up: dose 5 mg/kg, route intravenous. The settings on record: in vivo.
Data set [8] is described as follows: Metabolic stability in rat liver microsomes assessed as compound remaining after 1 hr. Type of data set: ADME, Microsome. The settings on record: read-out: Stability.
A short description of data set [9]: Aqueous solubility of the compound. Particulars: buffer. Type of data set: physicochemical.
For data set [10], the target named is T3, P2X purinoceptor 3 (Homo sapiens) (UniProt P56373).
T3 sequence (whole entry): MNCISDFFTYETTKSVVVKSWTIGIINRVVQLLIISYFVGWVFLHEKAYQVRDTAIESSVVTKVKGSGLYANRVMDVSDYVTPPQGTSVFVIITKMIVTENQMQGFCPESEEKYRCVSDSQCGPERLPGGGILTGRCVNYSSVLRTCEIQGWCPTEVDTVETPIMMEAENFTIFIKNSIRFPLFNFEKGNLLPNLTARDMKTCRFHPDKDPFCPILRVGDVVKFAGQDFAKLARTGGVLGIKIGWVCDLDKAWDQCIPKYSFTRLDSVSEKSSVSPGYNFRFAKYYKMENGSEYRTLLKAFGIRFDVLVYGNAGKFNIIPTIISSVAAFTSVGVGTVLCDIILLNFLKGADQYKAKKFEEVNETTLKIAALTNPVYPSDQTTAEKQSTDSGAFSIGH
The data set is described as follows: Antagonist activity at P2X3 receptor at 10 uM. Type of data set: functional.

Data set [11] concerns the target P2Y purinoceptor 2 (Homo sapiens) (UniProt P41231). The data set is described as follows: Antagonist activity at P2Y2 receptor at 10 uM. Type of data set: functional.
The target of data set [12] is P2X2/P2X3 heterotrimeric receptor (Homo sapiens) (UniProt Q9UBL9+P56373). The data set is described as follows: Antagonist activity at P2X2/3 receptor at 10 uM. Type of data set: functional.
In data set [13] the target is T4, P2X purinoceptor 4 (Homo sapiens) (UniProt Q99571).
T4 sequence (whole entry): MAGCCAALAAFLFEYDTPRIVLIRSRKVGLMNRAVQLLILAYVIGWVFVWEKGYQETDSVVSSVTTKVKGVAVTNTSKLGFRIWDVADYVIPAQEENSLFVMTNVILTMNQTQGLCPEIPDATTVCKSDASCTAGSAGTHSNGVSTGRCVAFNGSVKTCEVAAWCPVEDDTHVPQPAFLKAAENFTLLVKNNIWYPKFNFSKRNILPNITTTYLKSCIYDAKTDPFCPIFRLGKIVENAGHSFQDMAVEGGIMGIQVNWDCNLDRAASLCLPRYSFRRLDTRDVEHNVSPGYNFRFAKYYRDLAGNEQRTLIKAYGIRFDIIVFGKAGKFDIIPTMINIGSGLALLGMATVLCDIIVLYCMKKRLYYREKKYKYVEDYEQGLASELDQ
Description: Antagonist activity at P2X4 receptor at 10 uM. Type of data set: functional.

The nature of data set [14]: Metabolic stability in rat liver microsomes assessed as compound remaining after 25 mins. Type of data set: ADME, Microsome. Particulars: read-out: Stability. For orientation: Microsomes from liver hold many membrane-bound enzymes, among them those of drug oxidation.
For data set [15], the system named is Blood. Description: Inhibition of IL18 release in LPS/ATP stimulated human whole blood. Type of data set: functional, tissue-based.

Values after ≈ are worked out from the molar mass of the structure shown. Active and inactive are the calls of the source. No cut-off for these calls is given here.

P2Y purinoceptor 2 (Homo sapiens), sequence (P41231 whole entry): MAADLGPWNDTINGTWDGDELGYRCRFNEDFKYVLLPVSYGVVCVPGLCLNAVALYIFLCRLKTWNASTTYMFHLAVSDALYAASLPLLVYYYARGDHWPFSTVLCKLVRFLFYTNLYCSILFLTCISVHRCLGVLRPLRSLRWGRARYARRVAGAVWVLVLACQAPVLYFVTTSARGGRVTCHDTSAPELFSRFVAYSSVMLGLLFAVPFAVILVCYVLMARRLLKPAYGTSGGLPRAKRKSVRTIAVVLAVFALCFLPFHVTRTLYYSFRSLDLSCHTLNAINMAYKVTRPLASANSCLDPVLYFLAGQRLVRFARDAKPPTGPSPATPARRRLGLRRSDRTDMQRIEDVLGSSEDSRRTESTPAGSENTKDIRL

Regarding `N#C/N=C(\Nc1cccnc1)N1CCN(C(=O)Nc2ccc(Cl)cc2)C(c2ccccc2)C1` (configuration not stated), the values for the IC50 in data set [1] and in data set [2] were 1330 nM and 2040 nM, respectively.
For `COc1ccc(NC(=O)N2CCN(C(=Nc3ccccc3C)NC#N)CC2c2ccccc2)cc1OC` (configuration not stated) the same measures were 25 nM and 178 nM.
`Cc1ccccc1N=C(NC#N)N1CCN(S(=O)(=O)c2ccc(Cl)cc2)C(c2ccccc2)C1` (configuration not stated): the IC50 in [1] was 540 nM; in [2] it was 4060 nM.
Take `CC(C)C1CN(C(=O)Nc2cccc(F)c2)CCN1C(=Nc1cccc2[nH]ncc12)NC#N` (configuration not stated): the IC50 in data set [1] worked out at 250 nM; in [3] it was 1590 nM.
`Cc1ccc2c(N=C(NC#N)N3CCN(C(=O)Nc4ccc(Cl)cc4)CC3C(C)C)cccc2n1` (configuration not stated): in data set [4], the Vd was determined as 11.8 L/kg. The IC50 turned out to be 93 nM in data set [1] and 151 nM in [2]. For the same compound, in data set [5], the bioavailability is 5%. Besides, the clearance in data set [6] was 23.3 mL/min/kg. In addition, in data set [7], the half-life is 4.4 h. For the same compound, the remaining at 1 h in data set [8] came out at 74%. The compound further returned a solubility in data set [9] of 19 µg/mL (≈ 38.8 µM).
On to `Cc1ccccc1NC(=O)N1CCN(C(=O)Nc2ccc(Cl)cc2)C(c2ccccc2)C1` (configuration not stated), for which the IC50 in data set [1] worked out at 780 nM; in data set [2], 620 nM.
As to `N#CNC(=Nc1cccc2[nH]ccc12)N1CCN(C(=O)Nc2ccc(Cl)cc2)C(c2ccccc2)C1` (configuration not stated), the results for the IC50 in data set [1], in data set [3] and in data set [2] were 130 nM, 12200 nM and 56 nM, respectively.
`Cc1ccccc1N=C(NC#N)N1CCN(Cc2ccc(Cl)cc2)C(c2ccccc2)C1` (configuration not stated): the IC50 in data set [1] and in [2] was > 10000 nM in each case.
On to `Cc1ccccc1N=C(NC#N)N1CCN(C(=O)N(C)c2ccc(Cl)cc2)C(c2ccccc2)C1` (configuration not stated), for which the 50% inhibitory concentration (IC50) in data set [1] turned out to be 1030 nM; in data set [2], 290 nM.
With `Cc1ccccc1N/C(=N\C#N)N1CCN(C(=O)Nc2ccc(Cl)cc2)C(C(C)C)C1` (configuration not stated), the IC50 in data set [1] amounted to 112 nM; in data set [3], 980 nM; in data set [2], 110 nM.
For the compound `Cc1ccccc1N/C(=N/C(N)=O)N1CCN(C(=O)Nc2ccc(Cl)cc2)C(c2ccccc2)C1` (configuration not stated), the figures for the IC50 in [1] and in [2] were 6400 nM and 10300 nM, respectively.
In the case of `CC(C)C1CN(C(=Nc2cccc3ncccc23)NC#N)CCN1C(=O)Nc1ccc(Cl)cc1` (configuration not stated), the half-inhibitory concentration (IC50) turned out to be 67 nM in [1], 880 nM in data set [3] and 93 nM in data set [2].
For `Cc1ccc(N/C(=N\C#N)N2CCN(C(=O)Nc3ccc(Cl)cc3)CC2C(C)C)c2cccnc12` (configuration not stated), the remaining at 1 h in data set [8] worked out at 64%.
For `CC(C)C1CN(C(=O)Nc2cccc(F)c2)CCN1C(=Nc1cccc2c1CCCN2)NC#N` (configuration not stated), the figures for the IC50 in data set [1] and in [3] were 60 nM and 460 nM, respectively.
With `Cn1cnc2c(N=C(NC#N)N3CCN(C(=O)Nc4ccc(Cl)cc4)C(c4ccccc4)C3)cccc21` (configuration not stated), the IC50 in data set [1] came to 1660 nM; in data set [2] it was 5190 nM.
For the compound `Cc1ccccc1N/C(=C/[N+](=O)[O-])N1CCN(C(=O)Nc2ccc(Cl)cc2)C(c2ccccc2)C1` (configuration not stated), the results for the IC50 in data set [1] and in [2] were 310 nM and 3110 nM, respectively.
For `CC(C)C1CN(C(=O)Nc2ccc(Cl)cc2)CCN1C(=Nc1cccc2c1CCNC2)NC#N` (configuration not stated), the half-maximal inhibitory concentration (IC50) in data set [1] amounted to 110 nM; in data set [3], 210 nM; in data set [2], 180 nM.
For `CC(C)C1CN(C(=O)Nc2ccc(Cl)cc2)CCN1/C(=N/C#N)Nc1cccc2[nH]ccc12` (configuration not stated) the same measures were 45 nM, 470 nM and 110 nM.
For the compound `CC(C)C1CN(C(=O)Nc2ccc(Cl)cc2)CCN1/C(=N/C#N)Nc1cccc2nc(F)ccc12` (configuration not stated), in data set [3], the IC50 is 2640 nM. Moreover, the remaining at 1 h in data set [8] was found to be 60%.
As for `Cc1ccc2c(N/C(=N\C#N)N3CCN(C(=O)Nc4ccc(Cl)cc4)CC3C(C)C)cccc2n1` (configuration not stated), the outcome in data set [10], in [11], in [12] and in data set [13] was inactive. In data set [3], this compound displayed an IC50 of 120 nM.
As for `CC(C)C1CN(C(=O)Nc2ccc(Cl)cc2)CCN1C(=Nc1cccc2ncccc12)NC#N` (configuration not stated), the IC50 was 40 nM in data set [1], 121 nM in data set [3] and 57 nM in data set [2]. The clearance in data set [6] was 53.3 mL/min/kg. Moreover, the remaining at 25 min in data set [14] turned out to be 43%. Also, the remaining at 1 h in data set [8] stood at 43%.
Consider `Cc1ccccc1N=C(NC#N)N1CCN(C(=O)Nc2ccc(Cl)cc2)CC1C(C)C` (configuration not stated), for which the IC50 in data set [1] turned out to be 60 nM; in [2], 125 nM.
With `CN(C)Cc1ccccc1N=C(NC#N)N1CCN(C(=O)Nc2ccc(Cl)cc2)C(c2ccccc2)C1` (configuration not stated), the IC50 turned out to be 480 nM in data set [1] and 1070 nM in data set [2].
As to `CC(C)C1CN(C(=O)Nc2cccc(F)c2)CCN1C(=Nc1cccc2occc12)NC#N` (configuration not stated), the IC50 in [1] was found to be 24900 nM.
Regarding `Cc1ccccc1N=C(NC#N)N1CCN(C(=O)Nc2ccc(Cl)cc2)C(c2ccccc2)C1` (configuration not stated), the Vd in data set [4] turned out to be 5.3 L/kg. For the same compound, the IC50 in data set [1] was determined as 132 nM; in [3], 1190 nM; in [2] it was 95 nM; in data set [15], 1260 nM. In addition, in [6], the clearance is 68.3 mL/min/kg. In addition, in [7], the half-life was 0.9 h.
For the compound `COc1ccc(CC(=O)N2CCN(C(=Nc3ccccc3C)NC#N)CC2c2ccccc2)cc1OC` (configuration not stated), the IC50 in data set [1] turned out to be 630 nM.
